Each structure is given as a SMILES string.

Here are results for one compound from patent US20060052357A1, “Organometallic anti-tumour agent” (priority 2001, published 2006).

The nature of the data set: Hydrolysis stability. In kind it is physicochemical. The following applies: for period of stability (no hydrolysis): 20° C. Here is the method: 0.6 g of (C5H7O2)2—Cu—C13H18Cl2N2O2 was dispersed in 100 ml of water or physiological saline solution with the aid of an ultrasound generator (frequency: 15 kHz, 10 minutes).
0.6 g of (C5H7O2)2—Cu—C13H18Cl2N2O2 was dispersed in 100 ml of 100% olive oil with the aid of an ultrasound generator (frequency: 15 kHz, 10 minutes).
0.1 g of (C5H7O2)2—Cu—C13H18Cl2N2O2 was dispersed in 100 ml of linoleic acid or linolenic acid with the aid of an ultrasound generator (frequency: 15 kHz, 10 minutes).

For `CC(=O)C=C(C)[O-].CC(=O)C=C(C)[O-].NC(Cc1ccc(N(CCCl)CCCl)cc1)C(=O)O.[Cu+2]` (stereo not drawn) [MOC.melphalan, (C5H7O2)2—Cu—C13H18Cl2N2O2], the period of stability (0.1 g in 100 ml of linoleic acid or linolenic acid, 20° C. in air) came to 1 year. For the same compound, the “period of stability (no hydrolysis)” value reads like this: (0.6 g in 100 ml of 100% olive oil) “more than 2 years”; (0.6 g in 100 ml of water or physiological saline solution) 30 days.
